Assay results published in patent publication US10294234B2, “HIV inhibitor compounds” (priority 2017, dated 2019).
Like-named read-outs stand apart in the source and are kept apart here.

Tests used:
[1] = Summary of the method: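 LC/MS/MS read-out of parent compound remaining; in vitro t1/2 converted to Clint. Incubation: 1 uM compound, 0.5 mg/mL dog/rat/human liver microsomes, NADPH-regenerating system, duplicate sets, time-points 2–65 minutes.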
in vivo = conditions: rat, in vivo
Summary of the method: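 Male SD rats (n=3/group, 0.27–0.32 kg), fasted overnight, given 0.5 or 1.0 mg/kg by 30-min IV infusion, or by oral gavage. Serial plasma samples (EDTA-K2) over 24 h measured by LC/MS/MS; non-compartmental PK analysis.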

[2] = 3H Human Predicted Clearance Assay (tritiated analogs); assay type: in vitro ADME; design: unit not given here
Protocol: 3H Human Predicted Clearance Assay:
For certain compounds, tritiated analogs (H^3) were prepared to further determined their human predicted clearance with increased resolution. Those studies were performed as described above using the tritiated analogs. Data from those compounds is found in Table 2 below and reported in FIG. 1 (note ATV and DRV were not tritiated).

[3] = test system: HIV-1 (IIIB) in MT-4 cells; test: MT-4 HIV assay; assay type: cell-based; conditions: HIV-1 (IIIB), MT-4 cells, 5 days, Cell Titer Glo, read-out: EC50
Summary of the method: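 Antiviral activity was read by Cell Titer Glo after a 5-day, 37 °C culture of MT-4 cells pre-infected with a 1:250 dilution of HIV-1 (IIIB). Compounds were tested as threefold dilution series in complete RPMI. Controls were no drug, mock infection and 5 uM AZT.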

[4] = Human immunodeficiency virus 1, MT4, 120 h

Compound	Human Pred Cl. ([1]; human, microsomes) [L/H/kg]	Rat. Pred. Cl. ([1]; rat, microsomes) [L/H/kg]	Vd (in vivo; male, SD, iv) [L/kg]	RAT PO F (in vivo; male, SD, po, 2.5 mg/kg) [%]	RAT IV CL (in vivo; iv) [mL/min/kg]	RAT IV T1/2 (in vivo; iv) [h]	3H Human Predicted Cl. ([2]; human, 1 uM)	EC50 [3, 4] [nM]	Human Pred Cl. ([1]; human liver microsomes 0.5 mg/mL, 1 uM compound, NADPH) [L/H/kg]	Rat. Pred. Cl. ([1]; rat liver microsomes 0.5 mg/mL, 1 uM compound, NADPH) [L/H/kg]	3H Human Predicted Cl. ([2]; tritiated analogs, human liver microsomes)	EC50 [3] [nM]
COC(=O)N[C@H](C(=O)N[C@@H](Cc1ccc(C#Cc2cnc(N3CC4CCC(C3)N4C3COC3)nc2)cc1)[C@@H](O)CN(Cc1c(F)cc(-c2ccn(CC(F)F)n2)cc1F)NC(=O)[C@@H](NC(=O)OC)C(C)(C)C(F)(F)F)C(C)(C)C(F)(F)F [Example 36, Methyl ((5S,8S,9S,14S)-11-(4-(1-(2,2-difluoroethyl)-1H-pyrazol-3-yl)-2,6-difluorobenzyl)-16,16,16-trifluoro-9-hydroxy-15,15-dimethyl-8-(4-((2-(8-(oxetan-3-yl)-3,8-diazabicyclo[3.2.1]octan-3-yl)pyrimidin-5-yl)ethynyl)benzyl)-3,6,13-trioxo-5-(1,1,1-trifluoro-2-methylpropan-2-yl)-2-oxa-4,7,11,12-tetraazahexadecan-14-yl)carbamate]	<0.11	0.27	5.99	16.4	5.33	15.7	0.1	3.68				
COC(=O)N[C@H](C(=O)N[C@@H](Cc1ccc(C#Cc2ccc(N3CC4CC(C3)N4C3COC3)nc2)cc1)[C@@H](O)CN(Cc1c(F)cc(-c2ccn(C(F)F)n2)cc1F)NC(=O)[C@@H](NC(=O)OC)C(C)(C)C(F)(F)F)C(C)(C)C(F)(F)F [Example 176, Methyl ((5S,8S,9S,14S)-11-(4-(1-(difluoromethyl)-1H-pyrazol-3-yl)-2,6-difluorobenzyl)-16,16,16-trifluoro-9-hydroxy-15,15-dimethyl-8-(4-((6-(6-(oxetan-3-yl)-3,6-diazabicyclo[3.1.1]heptan-3-yl)pyridin-3-yl)ethynyl)benzyl)-3,6,13-trioxo-5-(1,1,1-trifluoro-2-methylpropan-2-yl)-2-oxa-4,7,11,12-tetraazahexadecan-14-yl)carbamate]	<0.11	0.75					0.09	3.36				
COC(=O)N[C@H](C(=O)N[C@@H](Cc1ccc(-c2ccc(N3CC4CCC(C3)N4C3COC3)nc2)cc1)[C@@H](O)CN(Cc1c(F)cc(-c2ccn(C(F)F)n2)cc1F)NC(=O)[C@@H](NC(=O)OC)C(C)(C)C(F)(F)F)C(C)(C)C(F)(F)F [Example 208, Methyl ((5S,8S,9S,14S)-11-(4-(1-(difluoromethyl)-1H-pyrazol-3-yl)-2,6-difluorobenzyl)-16,16,16-trifluoro-9-hydroxy-15,15-dimethyl-8-(4-(6-(8-(oxetan-3-yl)-3,8-diazabicyclo[3.2.1]octan-3-yl)pyridin-3-yl)benzyl)-3,6,13-trioxo-5-(1,1,1-trifluoro-2-methylpropan-2-yl)-2-oxa-4,7,11,12-tetraazahexadecan-14-yl)carbamate]	0.16	0.74					0.11	2.51				
Methyl ((5S,8S,9S,14S)-11-(4-(1-(difluoromethyl)-1H-pyrazol-3-yl)-2,6-difluorobenzyl)-16,16,16-trifluoro-9-hydroxy-15,15-dimethyl-8-(4-((6-(4-(oxetan-3-yl)piperazin-1-yl)pyridin-3-yl)ethynyl)benzyl)-3,6,3-trioxo-5-(1,1,1-trifluoro-2-methylpropan-2-yl)-2-oxa-4,7,11,12-tetraazahexadecan-14-yl)carbamate [Example 112]									<0.11	0.32	0.11	4.45
